Assay results taken from patent publication US20090004106A1, “Radioligands for the 5 -Ht1b Receptor” (priority 2006, published 2009).

System: 5-HT1B receptor
Assay: PET measurements in monkeys (radioligand brain uptake and 5-HT1B receptor binding)
Type: in vivo, Cynomolgus monkey
Method: Cynomolgus monkey can be used to determine the suitability of [^11C] labeled raidoligands as a radioligand for PET-determination of 5HT^1B-receptor binding and occupancy. Anaesthesia can be induced and maintained by repeated intramuscular injections of a mixture of ketamine (3-4 mg/kg per h Ketalar, Parke-Davis) and xylazine hydrochloride (1-2 mg/kg per h Rompun® Vet., Bayer, Sweden) for the duration of each measurement. A fixation device can be used for the positioning of the monkey head during the PET-measurements. Body temperature can be controlled by Bair Hugger—Model 505 (Arizant Healthcare Inc, MN).
Radioactivity in the brain can be measured with the Siemens ECAT Exact HR47 system that can be used in the three-dimensional model. The system covers an axial distance of 15 cm. The transaxial resolution of the reconstructed images is about 3.8 mm full width at half-maximum (FWHM) and the axial resolution 4.0 mm FWHM. […]
In each PET-measurement a sterile physiological phosphate buffer (pH=7.4) solution containing about 1.4 mCi (50 MBq) of [^11C] labeled compound can be injected as a bolus into a sural vein during 2 s with simultaneous start of PET-data acquisition. Radioactivity in brain can be measured continuously for 93 minutes according to a pre-programmed series of 15 frames starting immediately after IV injection of [^11C] labeled compound. […]
During all PET measurements venous blood samples (about 0.5 ml) can be taken at 4 time points (at about 4, 15, 30 and 45 minutes) and plasma radioactivity concentration determined in a well counter, cross-calibrated with the camera. […]
The ROIs can be drawn on the PET summation images representing radioactivity measured from 9 minutes after intravenous injection to the end of the measurement. […] Radioactivity is calculated for the sequence of time frames, corrected for the radioactivity decay, and plotted versus time. For each region a time-activity curve can be generated and radioactivity expressed as nCi/ml. […]

## [^11C] 8-(4-methylpiperazin-1-yl)-5-methylchrom-2-en-4-one-2-(4-morpholinophenyl)carboxamide) [Example 3]
Primate brain PET, non specific defined as cerebellum
  specific binding to the areas of interest: binds specifically to the areas of interest
Primate brain PET, ratio of ROI to cerebellum (non specific defined as cerebellum)
  specific to non-specific ratios: high enough specific to non-specific ratios
Primate brain, PET, IV bolus of [11C] labeled compound
  entry of radioligand into brain: rapidly entered the primate brain
